Test results: patent publication US11633392B2 (priority 2016, dated 2023)
Marks after values point to notes of the source that are not given here.

Experiments:
SD male rats = assay: Rat cerebral infarction-induced overactive bladder model (cystometry); type: in vivo; settings: for Pressure at the time of urination / Single urination amount / Static pressure / Urination interval: cumulative, Mean ± S.E. (n = 5)
Method: Evaluation Using Rat Cerebral Infarction-Induced Overactive Bladder Model
A transient middle cerebral artery occlusion model was prepared by using 8 weeks old SD male rats under isoflurane inhalation anesthesia. On the next day, the cervix was slightly cut open again under the isoflurane inhalation anesthesia, and a catheter for administration was fixed in the jugular vein, and led to the back. A cystometry operation was also performed, and the other end of a cannula inserted into the bladder was led to the back, and connected to a cannula swivel.
On the day 4 after the cerebral ischemia operation, cystometry was performed under no anesthesia and with no restraint. Intravesical pressure was measured for the stable period, then a medium was intravenously administered, and the value of the pressure was measured over about 30 minutes as a value before test substance administration. Then, the test substance was cumulatively and intravenously administered from the lowest dose at intervals of about 30 minutes, and the value was measured for about 30 minutes after each administration. For the rats determined to show pollakiuria (urination interval was 10 minutes or shorter) in the measurement before the administration, static intravesical pressure, pressure at the time of urination, urination interval, and single urination amount were measured at each time point.

human opioid κ receptor = target: T1, human opioid κ receptor (Homo sapiens, UniProt P41145); assay: Opioid receptor function test (Lance Ultra cAMP Kit), κ receptor; type: cell-based; settings: maximum reaction not reached; maximum concentration 10 μM; U-69593 = 100%
T1 construct: host or cells: CHO cells
T1 sequence (P41145 whole entry): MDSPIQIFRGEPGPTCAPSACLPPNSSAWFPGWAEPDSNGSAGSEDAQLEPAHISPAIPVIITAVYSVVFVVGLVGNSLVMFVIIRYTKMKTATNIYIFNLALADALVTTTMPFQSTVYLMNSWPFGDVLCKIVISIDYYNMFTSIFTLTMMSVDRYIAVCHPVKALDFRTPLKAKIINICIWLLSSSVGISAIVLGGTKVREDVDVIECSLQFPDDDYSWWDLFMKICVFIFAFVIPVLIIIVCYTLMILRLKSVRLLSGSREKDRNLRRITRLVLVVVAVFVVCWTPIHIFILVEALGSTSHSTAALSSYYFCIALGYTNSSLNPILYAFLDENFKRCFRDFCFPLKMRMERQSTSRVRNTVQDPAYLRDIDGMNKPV

human opioid δ receptor = target: T2, human opioid δ receptor (Homo sapiens, UniProt P41143); assay: Opioid receptor function test (Lance Ultra cAMP Kit), δ receptor; type: cell-based
T2 construct: host or cells: CHO cells
T2 sequence (P41143 whole entry): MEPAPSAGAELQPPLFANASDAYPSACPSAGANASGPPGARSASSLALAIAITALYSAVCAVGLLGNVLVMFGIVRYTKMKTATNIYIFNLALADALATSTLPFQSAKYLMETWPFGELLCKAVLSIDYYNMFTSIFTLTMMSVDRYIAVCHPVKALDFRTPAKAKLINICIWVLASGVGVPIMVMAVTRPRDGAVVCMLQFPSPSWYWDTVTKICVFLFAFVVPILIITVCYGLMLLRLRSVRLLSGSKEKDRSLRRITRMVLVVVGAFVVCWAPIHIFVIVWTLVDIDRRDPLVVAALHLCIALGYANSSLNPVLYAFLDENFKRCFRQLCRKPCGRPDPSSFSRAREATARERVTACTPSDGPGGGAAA

[1] = tested on: olfactory bulbectomized (OBX) rat; assay: Hyperemotional reaction inhibition test using olfactory bulbectomized (OBX) rat; type: in vivo; settings: for hyperemotional reactions of the OBX rats compared with the solvent administration group: maintained until day 14
Description: Hyperemotional Reaction Inhibition Test Using Olfactory Bulbectomized (OBX) Rat
According to the method of Saitoh et al. (Saitoh A, Yamada M, Yamada M, Takahashi K, Yamaguchi K, Murasawa H, Nakatani A, Tatsumi Y, Hirose N, and Kamei J: Antidepressant-like effects of the delta-opioid receptor agonist SNC80 ((+)-4-[(alphaR)-alpha-[(2S,5R)-2,5-dimethyl-4-(2-propenyl)-1-piperazinyl]-(3-methoxyphenyl)methyl]-N,N-diethylbenzamide) in an olfactory bulbectomized rat model, Brain Res., 2008, 1208:160-169), OBX rats were prepared by extracting the rat olfactory bulbs, and then breeding the rats in an isolated circumstance. Hyperemotional reaction was evaluated on the day 14 after the surgical operation and before the division into groups, and 2 hours after the administration on the days 1, 4, 7, 10, and 14 of the administration period according to the hyperemotional reaction evaluation criteria prepared by Gomita et al. (Gomita et al., Behavioral pharmacological and electroencephalographical studies of 7-chloro-1-methyl-5-phenyl-1H-1,5-benzodiazepine-2,4-(3H,5H:)-dione (Clobazam), Folia Pharmacologica Japonica, 82, 267 (1983)). The drug was subcutaneously administered once a day continuously over 14 days. As a positive control drug, fluoxetine, which is a selective serotonin reuptake inhibitor (SSRI), was used. As the solvent, a 1% cyclodextrin (CD) was used.

Metabolic stability test = type: in vitro ADME; settings: liver microsomes; human hepatic microsomes, 0 to 60 minutes; read-out: metabolic clearance CLint
Method: Human hepatic microsomes and a test substance were reacted for a certain period of time (0 to 60 minutes). The test substance, which was not metabolized in the reaction sample, was measured, and remaining ratio was calculated. The test substance-remaining ratio at the time when the reaction time is 0 hour is taken as 100%. The remaining ratio after incubation was plotted against time as a log-linear plot to obtain a regression line (y=100 e^−kt, k=inclination of straight line: clearance rate constant), and metabolic clearance CLint (mL/min/kg) was calculated by using the following equation. CLint*=k(−min)×52.5(mg MS protein/g liver)×26(g liver/kg)/MS protein (mg MS protein/mL) • *: Davies, B. and Morris T., Physiological parameters in laboratory animals and humans, Pharm. Res., 10(7)1093-1095, 1993 (Test Results)

Wistar male rats = assay: Rat elevated plus maze test; type: in vivo; settings: oral, 3 mg/kg, 2 hours before test (FIG. 6)
Method: Rat Elevated Plus Maze Test
Anxiolytic effects of the compounds provided by the present invention were investigated by the rat elevated plus maze test.
For the test, 7 to 9 weeks old Wistar male rats were used. […] Each test substance was dissolved in a 4.5% aqueous solution of cyclodextrin, and orally administered 2 hours before the start of the test. The test data were automatically analyzed by using video image action analysis software (Smart3.0, PanLab S.L., PanLab), and wall-less running route staying time ratio (%) was calculated.

O=C(c1cccc(=O)[nH]1)N1C[C@H]2C[C@@]34CC[C@@H]1[C@@H]2[C@@]31CCN(CC2CC2)[C@@H]4Cc2ccc(O)cc21 [Example 7, 6-((1S,3aR,5aS,6R,11bR,11cS)-14-(cyclopropylmethyl)-10-hydroxy-2,3,3a,4,5,6,7,11c-octahydro-1H-6,11b-(epiminoethano)-1,5a-methanonaphtho[1,2-e]indole-3-carbonyl)pyridin-2(1H)-one]
Pressure at the time of urination (SD male rats; 0.01 mg/kg intravenous): 42.9 ± 10.7 mmHg | Single urination amount (SD male rats; 0.01 mg/kg intravenous): 0.310 ± 0.068 g | Static pressure (SD male rats; 0.01 mg/kg intravenous): 9.5 ± 1.3 mmHg | Urination interval (SD male rats; 0.01 mg/kg intravenous): 450.7 ± 76.9 s | Pressure at the time of urination (SD male rats; 0.1 mg/kg intravenous): 42.8 ± 9.7 mmHg | Single urination amount (SD male rats; 0.1 mg/kg intravenous): 0.403 ± 0.129 g | Static pressure (SD male rats; 0.1 mg/kg intravenous): 9.6 ± 1.1 mmHg | Urination interval (SD male rats; 0.1 mg/kg intravenous): 547.4 ± 122.5 s | effect on single urination amount (in words) (SD male rats; 0.01 and 0.1 mg/kg intravenous): dose-dependently increasing tendency | effect on urination interval (in words) (SD male rats; 0.01 and 0.1 mg/kg intravenous): dose-dependently increasing tendency | effect on pressure at the time of urination (in words) (SD male rats; all the doses): did not affect | effect on static intravesical pressure (in words) (SD male rats; all the doses): did not affect | κ receptor reaction rate at the maximum concentration (reference value, marked *) (human opioid κ receptor): −0.9* % | EC50 (human opioid δ receptor; CHO cells expressing human δ receptor, cAMP, in the presence of forskolin): < 3 nM | Emax (human opioid δ receptor; ratio to maximum reaction of control drug SNC80 taken as 100%): 99% | hyperemotional reactions of the OBX rats compared with the solvent administration group ([1]; 0.1 mg/kg s.c. once a day, from the day 4 of the administration period): significantly reduced | hyperemotional reactions of the OBX rats relative to sham surgery group ([1]; 0.1 mg/kg s.c. once a day, on the day 7 of the administration period): restored the condition even to a level comparable to that of the rats of the sham surgery group | hyperemotional reactions of the OBX rats compared with the solvent administration group ([1]; 1 mg/kg s.c. once a day, from the day 1 of the administration period): significantly reduced | hyperemotional reactions of the OBX rats relative to sham surgery group ([1]; 1 mg/kg s.c. once a day, on the day 4 of the administration period): restored the condition even to a level comparable to that of the rats of the sham surgery group | CLint scaled (Metabolic stability test): 5.6 mL/min/kg | wall-less running route staying time ratio (Wistar male rats): significantly increased
